Measurements reported in PMC10088252.

Details: 300 mg QD (n=12)

In the case of `O=C(Nc1ccc(Oc2ccnc3c2CCN3)c(F)c1)c1c[nH]cc(-c2ccc(F)cc2)c1=O`, the “TRAE Accessory nerve disorder, any grade” value is reported as 1 (8.3) n (%), the “TRAE Accessory nerve disorder, grade 3-4” value is reported as 0 n (%) and the “TRAE Activated partial thromboplastin time prolonged, any grade” value is reported as 1 (8.3) n (%). For the same compound, the “TRAE Activated partial thromboplastin time prolonged, grade 3-4” value was 0 n (%), the “TRAE Anaemia, any grade” value was 0 n (%) and the “TRAE Anaemia, grade 3-4” value was 0 n (%). The “TRAE Anaesthesia oral, any grade” value was 0 n (%), the “TRAE Anaesthesia oral, grade 3-4” value was 0 n (%) and the “TRAE Arrhythmia, any grade” value was 0 n (%). For the same compound, the “TRAE Arrhythmia, grade 3-4” value was 0 n (%), the “TRAE Arthralgia, any grade” value was 0 n (%) and the “TRAE Arthralgia, grade 3-4” value was 0 n (%). For the same compound, the “TRAE Asthenia, any grade” value was 0 n (%), the “TRAE Asthenia, grade 3-4” value was 0 n (%) and the “TRAE Blister, any grade” value was 0 n (%). The “TRAE Blister, grade 3-4” value was 0 n (%), the “TRAE Chest discomfort, any grade” value was 1 (8.3) n (%) and the “TRAE Chest discomfort, grade 3-4” value was 0 n (%). For the same compound, the “TRAE Chronic kidney disease, any grade” value was 0 n (%), the “TRAE Chronic kidney disease, grade 3-4” value was 0 n (%) and the “TRAE Constipation, any grade” value was 2 (16.7) n (%). The “TRAE Constipation, grade 3-4” value was 0 n (%), the “TRAE Cough, any grade” value was 0 n (%) and the “TRAE Cough, grade 3-4” value was 0 n (%). The “TRAE Decreased Ccr, any grade” value was 2 (16.7) n (%), the “TRAE Decreased Ccr, grade 3-4” value was 0 n (%) and the “TRAE Decreased appetite, any grade” value was 2 (16.7) n (%). For the same compound, the “TRAE Decreased appetite, grade 3-4” value was 0 n (%), the “TRAE Diarrhoea, any grade” value was 1 (8.3) n (%) and the “TRAE Diarrhoea, grade 3-4” value was 0 n (%). For the same compound, the “TRAE Dizziness, any grade” value was 1 (8.3) n (%), the “TRAE Dizziness, grade 3-4” value was 0 n (%) and the “TRAE Dry mouth, any grade” value was 1 (8.3) n (%). For the same compound, the “TRAE Dry mouth, grade 3-4” value was 0 n (%), the “TRAE Dysgeusia, any grade” value was 1 (8.3) n (%) and the “TRAE Dysgeusia, grade 3-4” value was 0 n (%). The “TRAE Dyskinesia, any grade” value was 0 n (%), the “TRAE Dyskinesia, grade 3-4” value was 0 n (%) and the “TRAE Dysphonia, any grade” value was 0 n (%). The “TRAE Dysphonia, grade 3-4” value was 0 n (%), the “TRAE Dyspnoea, any grade” value was 0 n (%) and the “TRAE Dyspnoea, grade 3-4” value was 0 n (%). For the same compound, the “TRAE Electrocardiogram QT prolonged, any grade” value was 1 (8.3) n (%), the “TRAE Electrocardiogram QT prolonged, grade 3-4” value was 0 n (%) and the “TRAE Elevated ALT, any grade” value was 3 (25.0) n (%). For the same compound, the “TRAE Elevated ALT, grade 3-4” value was 0 n (%), the “TRAE Elevated AST, any grade” value was 2 (16.7) n (%) and the “TRAE Elevated AST, grade 3-4” value was 0 n (%). The “TRAE Elevated D dimer, any grade” value was 0 n (%), the “TRAE Elevated D dimer, grade 3-4” value was 0 n (%) and the “TRAE Elevated GGT, any grade” value was 0 n (%). The “TRAE Elevated GGT, grade 3-4” value was 0 n (%), the “TRAE Elevated LDH, any grade” value was 0 n (%) and the “TRAE Elevated LDH, grade 3-4” value was 0 n (%). For the same compound, the “TRAE Elevated alpha-HBDH, any grade” value was 0 n (%), the “TRAE Elevated alpha-HBDH, grade 3-4” value was 0 n (%) and the “TRAE Elevated bilirubin, any grade” value was 0 n (%). For the same compound, the “TRAE Elevated bilirubin, grade 3-4” value was 0 n (%), the “TRAE Elevated blood creatinine, any grade” value was 3 (25.0) n (%) and the “TRAE Elevated blood creatinine, grade 3-4” value was 0 n (%). For the same compound, the “TRAE Elevated creatine phosphokinase, any grade” value was 0 n (%), the “TRAE Elevated creatine phosphokinase, grade 3-4” value was 0 n (%) and the “TRAE Elevated serum urea, any grade” value was 1 (8.3) n (%). For the same compound, the “TRAE Elevated serum urea, grade 3-4” value was 0 n (%), the “TRAE Elevated troponin, any grade” value was 0 n (%) and the “TRAE Elevated troponin, grade 3-4” value was 0 n (%). For the same compound, the “TRAE Genital rash, any grade” value was 0 n (%), the “TRAE Genital rash, grade 3-4” value was 0 n (%) and the “TRAE Haematuria, any grade” value was 0 n (%). For the same compound, the “TRAE Haematuria, grade 3-4” value was 0 n (%), the “TRAE Headache, any grade” value was 1 (8.3) n (%) and the “TRAE Headache, grade 3-4” value was 0 n (%). The “TRAE Hyperhidrosis, any grade” value was 0 n (%), the “TRAE Hyperhidrosis, grade 3-4” value was 0 n (%) and the “TRAE Hyperlipidaemia, any grade” value was 0 n (%). The “TRAE Hyperlipidaemia, grade 3-4” value was 0 n (%), the “TRAE Hypertension, any grade” value was 1 (8.3) n (%) and the “TRAE Hypertension, grade 3-4” value was 0 n (%). For the same compound, the “TRAE Hypoaesthesia oral, any grade” value was 0 n (%), the “TRAE Hypoaesthesia oral, grade 3-4” value was 0 n (%) and the “TRAE Hypocalcaemia, any grade” value was 0 n (%). For the same compound, the “TRAE Hypocalcaemia, grade 3-4” value was 0 n (%), the “TRAE Hypotension, any grade” value was 1 (8.3) n (%) and the “TRAE Hypotension, grade 3-4” value was 0 n (%).
